Experimental data: publication PMC7501296, “Rapid and direct control of target protein levels with VHL-recruiting dTAG molecules” (Nature Communications, 2020)
“And” between values parts separate entries of the source, which are not always exact repeats. Equal values may be shown once.

Columns and labels:
luciferase-FKBP12^F36V = target: T1, luciferase-FKBP12^F36V (Homo sapiens, UniProt P62942, F37V); experiment: Pharmacodynamic evaluation: bioluminescence of MV4;11 luc-FKBP12F36V cells in mice; type: in vivo, mice (NSG); parameters: Total flux for each mouse: unit not given here; details: for Total flux for each mouse: single mice
T1 construct: luciferase (fusion partner); expressed in transfected cells; host or cells: MV4;11 cells transplanted into NSG mice
Description: For IP injections, dTAG-13 and dTAG^V-1 were formulated by dissolving into DMSO and then diluting with 20% solutol (Sigma): 0.9% sterile saline (Moltox) (w:v) with the final formulation containing 5% DMSO. […] Formulations were stable at room temperature for 7 days. For IV injections, dTAG-13 and dTAG^V-1 were formulated by dissolving into DMSO and then diluting with 5% solutol (Sigma): 0.9% sterile saline (Moltox) (w:v) with the final formulation containing 5% DMSO.
All procedures for PD studies were compliant with ethical regulations for animal testing and research, and were approved by and performed in accordance with standards of the IACUC at Dana–Farber Cancer Institute. Housing conditions for mice at Dana–Farber Cancer Institute were as follows: lights on = 6 AM, lights off = 6 PM, average ambient temperature = 72 °F, and average humidity = 35–55%. Evaluation of degradation of luciferase in vivo was performed using MV4;11 luc-FKBP12^F36V cells and bioluminescent measurements[6],[48]. In brief, 250,000 viable MV4;11 luc-FKBP12^F36V cells were transplanted by tail-vein injection in 8-week-old immunocompromised female mice (NOD.Cg-Prkdc^scidIl2rg^tm1Wjl/SzJ, NSG; Jackson Laboratory, #005557). Bioluminescent measurements were performed following IP injection of 75 mg kg^−1 D-Luciferin (Promega). Mice were then anesthetized with 2−3% isoflurane, imaged on an IVIS Spectrum (Caliper Life Sciences), and total body bioluminescence was determined using a standardized region of interest. Two and seven days after tail-vein injection, bioluminescent measurements were performed to confirm engraftment. […] For treatments, compounds were formulated as described above, administered via IP injection and bioluminescent measurements were performed daily as described in Fig. 2d, beginning 8 days after tail-vein injection.

FKBP12^F36V-KRAS^G12V = target: T2, FKBP12^F36V-KRAS^G12V (Homo sapiens, UniProt P01116+P62942, F37V/G12V); experiment: Immunoblot of PATU-8902 FKBP12F36V-KRASG12V; KRAS-/- clone; type: cell-based; details: time-course
T2 construct: KRAS G12V (fusion partner, same polypeptide); expressed in transfected cells
Description: PATU-8902 LACZ-FKBP12^F36V and FKBP12^F36V-KRAS^G12V; KRAS^−/− cells and 293T cells were lysed with RIPA buffer supplemented with cOmplete protease inhibitors (Roche), PhosSTOP phosphatase inhibitors (Roche), and 0.1% benzonase (Novagen). Proteins were separated using NuPAGE Bolt^TM Bis–Tris gels (Thermo Fisher Scientific) and transferred to nitrocellulose membranes, which were blocked with Odyssey Blocking Buffer (LI-COR) and incubated with primary antibodies overnight. Membranes were washed three times with TBS-T, incubated with the appropriate fluorescently labeled infrared secondary antibodies, washed again three times with TBS-T, and assessed using an Odyssey CLx Imager (LI-COR)[6],[15]. EWS502 cells were lysed with Cell Lysis Buffer (Cell Signaling Technology) supplemented with cOmplete protease inhibitors (Roche). Proteins were separated using SDS-PAGE gels and transferred to PVDF membranes, which were blocked with 5% milk in TBS-T and incubated with primary antibodies overnight. Membranes were washed five times with TBS-T, incubated with the appropriate horseradish peroxidase-conjugated secondary antibodies, washed again five times with TBS-T, and imaged. The following primary antibodies were employed in this study: HA (Cell Signaling Technology #3724 and #2367, dilution at 1:1000), phospho-ERK1/2 T202/Y204 (Cell Signaling Technology #4370, dilution at 1:1000), ERK1/2 (Cell Signaling Technology #4696, dilution at 1:1000), phospho-AKT S473 (Cell Signaling Technology #4060, dilution at 1:1000), AKT (Cell Signaling Technology #2920, dilution at 1:1000), FKBP12 (Abcam #ab24373, dilution at 1:1000), GFP (Cell Signaling Technology #2555, dilution at 1:1000), FLI (Abcam #ab15289, dilution at 1:2000), NKX2-2 (Abcam #ab187375, dilution at 1:1000), GAPDH (Cell Signaling Technology #2118, dilution at 1:3000), Vinculin (Cell Signaling Technology #13901, dilution at 1:3000), β-Actin (Cell Signaling Technology #58169, dilution at 1:3000), and α-Tubulin (Cell Signaling Technology #3873, dilution at 1:5000). Species-specific fluorescently labeled infrared secondary antibodies including IRDye 680LT anti-Mouse IgG (LI-COR #926-68020, dilution at 1:5000), IRDye 800CW anti-Mouse IgG (LI-COR #926-32210, dilution at 1:5000), IRDye 680LT anti-Rabbit IgG (LI-COR #926-68021, dilution at 1:5000), and IRDye 800CW anti-Rabbit IgG (LI-COR #926-32211, dilution at 1:5000) and peroxidase-linked secondary antibodies including anti-Mouse IgG (Thermo Fisher Scientific #45000680, dilution at 1:5000) and anti-Rabbit IgG (Thermo Fisher Scientific #45000682, dilution at 1:5000) were employed as appropriate.

[1] = tested on: EWS502 FKBP12^F36V-EWS/FLI; EWS/FLI^−/− cells; experiment: Relative growth of EWS502 FKBP12F36V-EWS/FLI; EWS/FLI-/- cells (CellTiter-Glo); type: cell-based; details: for Relative growth (luminescence values relative to day 0): EWS502 FKBP12F36V-EWS/FLI, EWS/FLI-/-; for Antiproliferation (relative growth): replicate values; for Antiproliferative effects upon EWS/FLI degradation: longer time-points
Description: Cell viability was assayed in 2D-adherent or ultra-low adherent 3D-spheroids using CellTiter-Glo (Promega)[6],[15]. Luminescence was measured on an Envision 2104 plate reader (PerkinElmer) and Fluostar Omega Reader (BMG Labtech) and data was analyzed using GraphPad PRISM v8. Synergy assessments were performed using CellTiter-Glo (Promega) with the following modifications to the protocol described in the ref. [34]. In brief, EWS502 cells were plated at 1000 cells per well in 50 µL of appropriate media in 384-well white culture plates (Corning) allowed to adhere overnight, and 100 nL of compounds were added using a Janus Workstation pin tool (PerkinElmer) for 72 h. Cell viability was measured by addition of 10 µL of CellTiter-glo (Promega), followed by incubation for 15 minutes at room temperature. Luminescence was measured on an Envision 2104 plate reader (PerkinElmer) and data was analyzed using GraphPad PRISM v8.

[2] = Baseline (day 0, before treatment), MV4;11 luc-FKBP12F36V
[3] = No treatment (day 4), 28 h after third and final treatment
[4] = Treatment #1 (day 1), 4 h after 35 mg kg^−1 IP
[5] = Treatment #2 (day 2), 4 h after 35 mg kg^−1 IP
[6] = Treatment #3 (day 3), 4 h after 35 mg kg^−1 IP

T1 sequence (P62942 2-108 F37V limits assumed): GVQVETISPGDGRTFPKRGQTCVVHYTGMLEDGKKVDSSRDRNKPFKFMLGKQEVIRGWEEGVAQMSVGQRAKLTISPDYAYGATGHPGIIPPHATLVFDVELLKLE
T2 sequence (P62942+P01116 fused P62942:F37V/P01116:G12V): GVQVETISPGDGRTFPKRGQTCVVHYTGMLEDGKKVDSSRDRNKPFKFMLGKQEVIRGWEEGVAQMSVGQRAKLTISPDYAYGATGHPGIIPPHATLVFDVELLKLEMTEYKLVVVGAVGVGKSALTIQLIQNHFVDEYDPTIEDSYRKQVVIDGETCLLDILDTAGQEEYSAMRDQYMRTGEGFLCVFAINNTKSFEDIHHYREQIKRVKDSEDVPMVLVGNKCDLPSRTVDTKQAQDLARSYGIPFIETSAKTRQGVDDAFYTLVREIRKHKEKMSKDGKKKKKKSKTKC

Structure (SMILES) | Bioluminescent signal 4 h after each of the three administrations (luciferase-FKBP12^F36V; 35 mg kg^−1 IP) | Total flux for each mouse (luciferase-FKBP12^F36V; [2]) | Total flux for each mouse (luciferase-FKBP12^F36V; [3]) | Total flux for each mouse (luciferase-FKBP12^F36V; [4]) | Total flux for each mouse (luciferase-FKBP12^F36V; [5]) | Total flux for each mouse (luciferase-FKBP12^F36V; [6]) | KRASG12V degradation, immunoblot (FKBP12^F36V-KRAS^G12V) | Relative growth (luminescence values relative to day 0) ([1]; day 0, technical replicates) | Relative growth (luminescence values relative to day 0) ([1]; day 3, technical replicates) | Relative growth (luminescence values relative to day 0) ([1]; day 5, technical replicates) | Relative growth (luminescence values relative to day 0) ([1]; day 7, technical replicates) | Antiproliferation (relative growth) ([1]; Time 0 days) | Antiproliferation (relative growth) ([1]; Time 3 days) | Antiproliferation (relative growth) ([1]; Time 5 days) | Antiproliferation (relative growth) ([1]; Time 7 days) | Antiproliferative effects upon EWS/FLI degradation [1] | Bioluminescent signal 4 h after the first administration (luciferase-FKBP12^F36V; 35 mg kg^−1 IP) | Duration of degradation (luciferase-FKBP12^F36V; 35 mg kg^−1 IP, after the final administration)
CC[C@H](C(=O)N1CCCC[C@H]1C(=O)O[C@H](CCc1ccc(OC)c(OC)c1)c1ccccc1OCC(=O)NCCCCCCOc1cccc2c1C(=O)N(C1CCC(=O)NC1=O)C2=O)c1cc(OC)c(OC)c(OC)c1 (stereo partly shown) [dTAG-13] | Consistent loss of bioluminescent signal | 4289000 and 889100 and 3230000 and 316100 and 985400 | 49160000 and 34070000 and 76150000 and 45320000 | 6613000 and 7583000 and 6309000 and 11170000 and 4709000 | 5587000 and 3752000 and 2682000 and 8076000 and 3987000 | 7807000 and 6324000 and 1630000 and 11780000 and 6875000 |  |  |  |  |  |  |  |  |  |  |  | 
CCC(C(=O)N1CCCCC1C(=O)OC(CCc1ccc(OC)c(OC)c1)c1ccccc1OCC(=O)NCCCCCCC(=O)NC(C(=O)N1CC(O)CC1C(=O)NC(C)c1ccc(-c2scnc2C)cc1)C(C)(C)C)c1cc(OC)c(OC)c(OC)c1 (stereo not shown) [dTAG^V-1-NEG] |  |  |  |  |  |  | not induced | 0.9945 and 0.95 and 1.001 and 0.9766 and 1.051 and 1.053 and 1.003 and 0.9709 | 5.114 and 5.468 and 5.612 and 5.24 and 5.293 and 5.6444 and 5.751 and 5.436 | 9.983 and 9.4493 and 9.47 and 9.104 and 8.952 and 10.1487 and 8.526 and 9.042 | 11.0059 and 11.6763 and 12.0315 and 12.3084 and 11.8629 and 11.627 and 12.7076 and 12.9032 | 0.9369 and 1.039 and 1.049 and 1.03 and 0.9405 and 1.006 and 0.9678 and 1.0315 | 6.723 and 6.994 and 7.2 and 7.295 and 6.686 and 6.901 and 6.814 and 7.587 | 15.6789 and 14.8903 and 15.2182 and 14.1831 and 15.4702 and 12.9669 and 13.0283 and 13.2307 | 17.0897 and 17.8515 and 16.9942 and 16.7495 and 17.7706 and 16.0177 and 15.7257 and 18.5474 | absent |  | 
CC[C@H](C(=O)N1CCCC[C@H]1C(=O)O[C@H](CCc1ccc(OC)c(OC)c1)c1ccccc1OCC(=O)NCCCCCCC(=O)N[C@H](C(=O)N1C[C@H](O)C[C@H]1C(=O)N[C@@H](C)c1ccc(-c2scnc2C)cc1)C(C)(C)C)c1cc(OC)c(OC)c(OC)c1 [dTAG^V-1] | Consistent loss of bioluminescent signal | 1893000 and 1330000 and 3116000 and 1809000 and 3338000 | 601200 and 13590000 and 24710000 and 1755000 and 24650000 | 4041000 and 2159000 and 3736000 and 2539000 and 5912000 | 3135000 and 1001000 and 2876000 and 2693000 and 9211000 | 4741000 and 1924000 and 4372000 and 3069000 and 6943000 | rapid KRAS^G12V degradation | 0.8696 and 1.038 (2×) and 1.097 and 0.9086 and 1.006 and 0.975 and 1.069 | 3.17 and 3.081 and 3.35 and 3.515 and 3.02 and 3.212 and 3.235 and 3.093 | 3.571 and 3.881 and 3.894 and 3.809 and 3.6579 and 3.634 and 3.713 and 3.678 | 4.1 and 3.846 and 4.015 and 4.459 and 4.182 and 3.984 and 3.963 and 4.228 | 1.031 and 1.006 and 0.9491 and 0.9896 and 1.023 and 0.9889 and 1.015 and 0.9988 | 3.562 and 3.604 and 3.659 and 3.498 and 3.439 and 4 and 3.9346 and 3.855 | 4.651 and 4.613 and 4.429 and 4.423 and 4.852 and 4.574 and 4.874 and 4.602 | 4.558 and 4.146 and 4.393 and 4.598 and 4.588 and 4.347 and 4.317 and 4.895 | Potent antiproliferative effects | Striking loss of bioluminescent signal | degradation evident 28 h after the final administration
